Laboratory results published in patent US6838253B2, “Regulation of intracellular glucocorticoid concentrations” (The University of Edinburgh, priority 1995, dated 2005).

Tests used:
5β-reductase = biological target: T1, 5β-reductase (Homo sapiens, UniProt P51857); conditions: reference 35; cited from earlier work
T1 sequence (P51857 1-326): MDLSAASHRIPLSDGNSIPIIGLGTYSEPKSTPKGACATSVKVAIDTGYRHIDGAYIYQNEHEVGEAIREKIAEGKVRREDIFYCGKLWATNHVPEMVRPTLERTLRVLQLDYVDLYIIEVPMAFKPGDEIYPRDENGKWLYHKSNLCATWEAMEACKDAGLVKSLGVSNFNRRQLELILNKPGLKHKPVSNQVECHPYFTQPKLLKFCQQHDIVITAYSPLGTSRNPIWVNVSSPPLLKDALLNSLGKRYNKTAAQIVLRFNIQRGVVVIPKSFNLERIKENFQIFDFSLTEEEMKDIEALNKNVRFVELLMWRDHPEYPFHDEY

[1] = biological target: T2, hepatic 11β-reductase activity (Homo sapiens, UniProt P28845); test: conversion of oral cortisone to cortisol on first pass as index of 11β-reductase activity in vivo in man
T2 construct: from tissue; host or cells: liver of human volunteers, in vivo
From the text: Consistent with the observations in animal tissues and cultured cells described above, we have established the relative activities of 11β-dehydrogenase and 11β-reductase in vivo in different organs in man by measuring the cortisol/cortisone ratio in plasma from selective venous catheterisations. In most organs the venous effluent contains cortisol and cortisone in a ratio of ˜10:1. However, in renal vein plasma the ratio is 3:1, while in hepatic vein plasma the ratio is 55:1, consistent with potent 11β-dehydrogenase activity due to 11β-HSD2 expression in the kidney and potent 11β-reductase 11β-HSD1 activity in the liver. Moreover, cortisone taken orally, and therefore delivered to the liver via the portal vein, is avidly converted on first pass to cortisol in the peripheral circulation. Using this index of 11β-reductase activity we have shown that, in addition to inhibiting renal 11β-dehydrogenase activity, carbenoxolone (but not glycyrrhetinic acid) inhibits hepatic 11β-reductase activity in vivo in man.

[2] = system: corticosteroids receptors; conditions: reference 36; cited from earlier work
[3] = euglycaemic hyperinsulinaemic clamp study with forearm glucose uptake in healthy male volunteers; assay type: in vivo, human
Protocol: Seven non-obese (Body Mass Index <25) healthy male Caucasian volunteers on no medication, aged 27-36 years, were given carbenoxolone (100 mg every 8 hours orally) or matched placebo for seven days in a randomised double-blind cross-over design, with phases separated by at least 4 weeks. On the seventh day of each phase euglycaemic hyperinsulinaemic clamp studies with measurement of forearm glucose uptake were performed, as described in detail in reference 16, the content of which is incorporated herein by reference.

[4] = fasting plasma glucose in rats after 14 days of subcutaneous treatment; assay type: in vivo, rat; conditions: 1, 3 or 10 mg daily s.c., male Wistar Hans rats
Protocol: Intact male Wistar Hans rats of body weight 200-250 g were treated with daily subcutaneous injection of 1 ml of either 0.9% saline (vehicle) or carbenoxolone (made up to 1, 3, or 10 mg/ml in 0.9% saline) for 14 days. They were fasted from 4 pm and blood obtained by tail-nick at 9 am the next day. Plasma glucose was measured by a glucose oxidase method on a Beckman CX-3 autoanalyser.

11β-reductase activity = biological target: T3, 11β-reductase activity (Rattus norvegicus, UniProt P16232); test: 11β-reductase activity in whole primary fetal hippocampal cells in culture; assay type: cell-based; conditions: 10^−6M
T3 construct: endogenous in cells; host or cells: primary cultures of fetal rat hippocampal cells
From the text: Hippocampi were dissected from Wistar rat embryos on day 18.5 of pregnancy and cultured in DMEM with supplements, as described. These cells expressed 11β-HSD1 mRNA, and homogenised cells performed either 11β-dehydrogenase or 11β-reductase activity.

adipocytes = conditions: higher concentrations (mmol/l), without corticosteroid, reference 37; cited from earlier work
rat hippocampal cells = test: kainic acid neurotoxicity, hippocampal cell survival; assay type: cell-based; conditions: for kainic acid neurotoxicity: pretreatment with steroid alone
From the text: To assess the influence of 11β-reductase activity on neurotoxicity, cells were exposed to kainic acid and cell survival determined.

[5] = thymic involution in mice; assay type: in vivo, mouse; conditions: wild-type control mice; homozygous mutant mice resistant
From the text: Homozygotes for the mutant allele are morphologically intact and fully fertile. No survival bias is conferred by the mutant allele. However, neither 11β-HSD1 mRNA nor enzyme activity (techniques as above) were detected in mutant homozygotes, and reduced mRNA and activity were detected in heterozygotes.

glucocorticoid receptors = biological target: T4, glucocorticoid receptors (Homo sapiens, UniProt P04150); conditions: reference 29; cited from earlier work
T4 sequence (P04150 1-777): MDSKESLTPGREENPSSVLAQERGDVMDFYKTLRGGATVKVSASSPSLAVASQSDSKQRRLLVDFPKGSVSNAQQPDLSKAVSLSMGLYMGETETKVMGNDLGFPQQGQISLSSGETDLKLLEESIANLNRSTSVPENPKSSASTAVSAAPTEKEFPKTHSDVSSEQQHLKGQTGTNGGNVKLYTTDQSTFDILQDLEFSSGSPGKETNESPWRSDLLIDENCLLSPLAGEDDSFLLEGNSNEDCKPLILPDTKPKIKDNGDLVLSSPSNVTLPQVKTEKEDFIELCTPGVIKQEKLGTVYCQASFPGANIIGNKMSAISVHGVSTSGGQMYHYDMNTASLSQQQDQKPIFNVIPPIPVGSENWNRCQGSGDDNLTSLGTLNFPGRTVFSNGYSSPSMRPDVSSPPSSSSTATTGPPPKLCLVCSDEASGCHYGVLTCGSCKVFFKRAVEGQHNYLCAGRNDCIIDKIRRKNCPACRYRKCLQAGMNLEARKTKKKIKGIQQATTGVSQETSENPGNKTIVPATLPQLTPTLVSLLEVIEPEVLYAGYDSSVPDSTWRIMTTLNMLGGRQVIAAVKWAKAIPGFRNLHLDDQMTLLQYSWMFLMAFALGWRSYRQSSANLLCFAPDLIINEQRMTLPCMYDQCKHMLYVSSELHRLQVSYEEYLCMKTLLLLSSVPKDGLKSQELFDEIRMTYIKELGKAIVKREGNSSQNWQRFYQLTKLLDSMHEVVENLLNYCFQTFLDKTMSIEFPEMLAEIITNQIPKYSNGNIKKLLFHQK

11β-HSD = 11β-HSD activity in tissue homogenates of treated gonadectomised rats; assay type: in vivo, rat
From the text: (§1) Male Han Wistar rats (200-250 g) underwent gonadectomy and either bilateral adrenalectomy or sham-operation under halothane anaesthesia. For estradiol administration, silicone elastomer capsules (1.95 mm internal diameter, 3.125 mm external diameter) (Dow Corning Corporation, Midland, Mich., USA) containing 17β-estradiol (Sigma, Poole, UK) were implanted subcutaneously. For animals treated for 42 days with estradiol, the capsules were removed and replaced after 21 days. Control animals were implanted with blank capsules. Adrenalectomised rats were maintained on 0.9%. saline. Rats were killed 10, 21 or 42 days after surgery. Liver and hippocampus were removed and dissected on ice for assay of 11β-HSD activity and an aliquot of liver was frozen on dry ice and stored at −80° C. until extraction of RNA.
Tissues were homogenised in Krebs-Ringer bicarbonate buffer with 0.2% glucose, pH 7.4, and assayed as described previously. Homogenates (6.25 μg of liver protein, 250 μg of hippocampal protein) were incubated with 200 μM NADP (Sigma, Poole, UK) and 12 nM [^3H]-corticosterone (specific activity 84 Ci/mmol; Amersham International, Aylesbury, UK) in a total volume of 250 μl with […] 11β-dehydrogenase activity was quantified in this assay as a measure of active enzyme since 11β-reductase is unstable in homogenates. Steroids were extracted with ethyl acetate and separated by HPLC with on-line β courtier. 11β-HSD activity was expressed as conversion of corticosterone to 11-dehydrocorticosterone, after correction for apparent conversion in incubates without enzyme (<3%).

11β-HSD1 mRNA = test: northern analysis of hepatic 11β-HSD1 mRNA in treated rats; assay type: in vivo, rat
From the text: as §1
Total RNA was extracted from liver tissue by the guanidinium thiocyanate method, as described and resuspended in diethylpyrocarbonate-treated water. RNA concentration and purity was assayed spectrophotometrically. 20 μg aliquots were separated on a 1.2% agarose gel containing 2% formaldehyde. […] Optical density was determined using a computer-driven image analysis system (Seescan plc, Cambs, UK). Values were expressed as a percentage of control levels.

PEPCK mRNA = test: northern analysis of hepatic PEPCK mRNA in treated rats; assay type: in vivo, rat
From the text: as §1
Total RNA was extracted from liver tissue by the guanidinium thiocyanate method, as described and resuspended in diethylpyrocarbonate-treated water. RNA concentration and purity was assayed spectrophotometrically. 20 μg aliquots were separated on a 1.2% agarose gel containing 2% formaldehyde. RNA was blotted onto nitrocellulose membranes (Hybond-N, Amersham International, UK), prehybridized in 6 ml phosphate buffer (0.2 M NaH2PO4, 0.6 M NaH2PO4, 5 mM EDTA), 3 ml 20% SDS and 100 μg denatured herring testis DNA (Sigma, Poole, UK) for 2 h at 55° C. and hybridized at 55° C. overnight in the same solution containing rat 11β-HSD1 or PEPCK cDNA, labelled with ^32P-dCTP using a random primed DNA labelling kit (Boehringer Mannheim UK Ltd., Lewes, UK). Three 20 min washes were carried out at room temperature in 1×SSC (0.3 M NaCl, 0.03 M sodium citrate), 0.1% SDS followed by a stringent wash at 55° C. for 30 min in 0.3×SSC, 0.1% SDS. Filters were exposed to autoradiographic film for 1-4 days (adjusted to ensure the signal density was within the linear range). […] Optical density was determined using a computer-driven image analysis system (Seescan plc, Cambs, UK). Values were expressed as a percentage of control levels.

[6] = 100 mg every 8 hours orally, seven days
[7] = 100 mg every 8 hours orally, seven days, healthy men

T2 sequence (P28845 whole entry): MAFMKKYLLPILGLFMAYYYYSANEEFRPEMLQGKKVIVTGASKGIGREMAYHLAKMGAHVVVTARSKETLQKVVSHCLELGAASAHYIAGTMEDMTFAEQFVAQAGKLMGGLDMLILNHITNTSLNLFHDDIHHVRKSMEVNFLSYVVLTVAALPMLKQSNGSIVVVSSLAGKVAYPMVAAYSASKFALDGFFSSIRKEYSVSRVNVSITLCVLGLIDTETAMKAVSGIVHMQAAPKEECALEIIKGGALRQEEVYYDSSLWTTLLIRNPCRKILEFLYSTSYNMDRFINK
T3 sequence (P16232 whole entry): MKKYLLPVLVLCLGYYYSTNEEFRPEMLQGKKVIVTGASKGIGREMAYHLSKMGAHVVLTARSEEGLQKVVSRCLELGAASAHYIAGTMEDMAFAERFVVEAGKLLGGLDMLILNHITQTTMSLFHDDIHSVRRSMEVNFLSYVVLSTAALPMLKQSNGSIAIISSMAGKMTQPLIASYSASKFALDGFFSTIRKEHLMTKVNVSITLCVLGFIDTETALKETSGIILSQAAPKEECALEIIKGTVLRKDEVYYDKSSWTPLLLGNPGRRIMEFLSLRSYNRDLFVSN

SMILES: CC1(C)[C@@H](OC(=O)CCC(=O)O)CC[C@]2(C)[C@H]3C(=O)C=C4[C@@H]5C[C@@](C)(C(=O)O)CC[C@]5(C)CC[C@@]4(C)[C@]3(C)CC[C@@H]12 [carbenoxolone, 3β-(3-carboxypropionyloxy)-11-oxo-olean-2-en 30-oic acid]
- 5β-reductase inhibition (5β-reductase): inhibits
- effect on 11β-reductase in vivo [1]: inhibits
- hepatic 11β-reductase activity in vivo in man ([1]; oral cortisone converted to cortisol, man): inhibits
- affinity for corticosteroids receptors in vitro [2]: low affinity
- blood pressure [3, 6]: not elevated
- forearm blood flow [3, 6]: not elevated
- fasting glucose concentration [3, 7]: no change
- fasting insulin concentration [3, 7]: fall
- plasma renin, aldosterone, and potassium concentrations ([3]; consequent on renal effects): suppressed
- peripheral glucose uptake as measured by forearm glucose uptake ([3]; euglycaemic clamp, day 7, versus placebo): No difference was detected
- fasting glucose concentrations [4]: dose-dependent fall
- 11β-reductase activity in whole hippocampal cells (11β-reductase activity): almost abolished
- action of insulin in adipocytes (adipocytes): antagonises
- potentiating effect of 11-dehydrocorticosterone on kainic acid neurotoxicity (rat hippocampal cells; with 11-dehydrocorticosterone): protected the cells
- effect of corticosterone on kainic acid neurotoxicity (rat hippocampal cells; with corticosterone): did not alter

SMILES: CC1(C)[C@@H](O)CC[C@]2(C)[C@H]3C(=O)C=C4[C@@H]5C[C@@](C)(C(=O)O)CC[C@]5(C)CC[C@@]4(C)[C@]3(C)CC[C@@H]12 [glycyrrhetinic acid]
- effect on 11β-reductase in vivo [1]: no effect

SMILES: C[C@]12C[C@H](O)[C@H]3[C@@H](CCC4=CC(=O)CC[C@@]43C)[C@@H]1CC[C@@H]2C(=O)CO [corticosterone]
- kainic acid neurotoxicity (rat hippocampal cells): potentiated

SMILES: C[C@]12CC(=O)[C@H]3[C@@H](CCC4=CC(=O)CC[C@@]43C)[C@@H]1CC[C@@H]2C(=O)CO [11-dehydrocorticosterone]
- thymic involution [5]: thymic involution seen
- kainic acid neurotoxicity (rat hippocampal cells): potentiated

SMILES: C[C@]12CCC(=O)C=C1CC[C@@H]1[C@@H]2[C@@H](O)C[C@@]2(C)[C@H]1CC[C@]2(O)C(=O)CO [cortisol]
- affinity of glucocorticoid receptors relative to mineralocorticoid receptors (glucocorticoid receptors): 10-40 times lower

SMILES: C[C@]12CC[C@@H]3c4ccc(O)cc4CC[C@H]3[C@@H]1CC[C@@H]2O [estradiol, 17β-estradiol]
- hepatic 11β-HSD activity (11β-HSD; 10, 21 and 42 days, gonadectomised male rats): marked decreases
- 11β-HSD activity in the hippocampus (11β-HSD; 21 or 42 days): not altered
- conversion of corticosterone to 11-dehydrocorticosterone in liver homogenates (11β-HSD; 42 days of treatment, prolonged (60 min) incubation): 12.2±14.7%
- liver 11β-HSD1 activity in adrenalectomised rats (11β-HSD; adrenalectomised, 21 days): reduced
- liver 11β-HSD1 mRNA in adrenalectomised rats (11β-HSD1 mRNA; adrenalectomised, 21 days): reduced
- hepatic 11β-HSD1 mRNA expression (11β-HSD1 mRNA; after 21 and 42 days, gonadectomised male rats): undetectable levels
- PEPCK mRNA levels in adrenalectomised rats (PEPCK mRNA; adrenalectomised, 21 days, compared with adrenalectomy alone): increased
- hepatic PEPCK gene expression (PEPCK mRNA; after 21 days, adrenally intact): decreased
- PEPCK mRNA expression (PEPCK mRNA; after 42 days): significantly reduced
